Data: publication PMC9572083, “Hybrids of 1,4-Quinone with Quinoline Derivatives: Synthesis, Biological Activity, and Molecular Docking with DT-Diaphorase (NQO1)” (Molecules, 2022)

Assays:
[1] = biological target: T1, NQO1 (DT-diaphorase, EC 1.6.5.5, human recombinant) (Homo sapiens, UniProt P15559); assay: NQO1 substrate NADPH recycling enzymatic assay; type: biochemical; conditions: for NQO1 activity (enzymatic conversion rate): compound 10 µmol/L, pH 7.4, 25 °C, absorbance at 340 nm
T1 construct: purchased Sigma-Aldrich
T1 sequence (P15559 whole entry): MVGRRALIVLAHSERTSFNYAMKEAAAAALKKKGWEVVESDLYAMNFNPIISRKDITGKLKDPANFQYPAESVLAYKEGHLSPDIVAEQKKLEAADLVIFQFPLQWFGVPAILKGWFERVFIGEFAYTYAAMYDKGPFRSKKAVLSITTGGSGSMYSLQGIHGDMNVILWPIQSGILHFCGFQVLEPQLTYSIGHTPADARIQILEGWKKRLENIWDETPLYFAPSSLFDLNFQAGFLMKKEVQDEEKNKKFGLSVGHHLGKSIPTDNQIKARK
Description: The interaction between 1,4-quinone moiety of hybrid and NQO1 protein leads to reduction in quinone to hydroquinone and production of reactive oxide form (ROS). According to a literature method, the ability of hybrids 11–14 and streptonigrin (ST) to be a substrate for NQO1 was examined by measuring the oxidation of NADPH to NADP^+ [29, 32].
Compounds 11–14 (10 µmol/L) were tested as NQO1 substrates using the NADPH recycling assay according to the literature method. The recombinant NQO1 (DT-diaphorase, EC 1.6.5.5, human recombinant, Sigma-Aldrich) was used, and the oxidation of NADPH to NADP^+ was measured at the absorption wavelength of 340 nm on the BioTek 800TS microplate reader (BioKom, Janki, Poland). Compounds were dissolved in dimethyl sulfoxide (2 µL) and added to the 96-well plate. The NQO1 protein (1.4 µg/mL) in 50 mmol/L potassium phosphate buffer (pH = 7.4) was added to each well (198 µL) (Nunc Thermo Fisher Scientific, Waltham, MA, USA). Once the 96-well plate was filled with the assay solutions, except the NADPH solution, it was placed into the instrument and left to sit for 5 min before starting the measurements. The enzymatic reaction was initiated by automatically dispensing the NADPH solution into the wells, and data were recorded at 10 s intervals for 5 min at 25 °C. The linear part of the absorbance vs. time graphs (the first 20 s to 1 min) was fitted, and the slopes were calculated. NADPH oxidation rates were compared with reactions lacking the tested compound. Initial velocities were calculated, and data were expressed as µmol NADPH/µmol NQO1/min. All reactions were carried out at least in triplicate.

[2] = tested on: Colo-829 cells; assay: Cytotoxic activity, WST-1 assay, melanoma Colo-829; type: cell-based, human; conditions: for SI (IC50 HFF-1/IC50 cancer line) Colo-829: HFF-1 vs Colo-829; for IC50: Homo sapiens, melanoma Colo-829, 72 h, WST-1
Source text: (§1) Anticancer activity of compounds 11–14 was designated against following human cancer cell lines: melanoma (Colo-829), ovarian cancer (SK-OV-3), breast cancer (MDA-MB-231, T47D and MCF-7), lung cancer (A549) and normal fibroblasts (HFF-1). As a reference substance, the doxorubicin was used. The results are presented in Table 1 as IC50, where IC50 means the concentration of tested compounds (µM) causing the growth inhibition of 50% for given tumor cells. The negative value (Neg.) means that the IC50 is higher than 30 µM. Selectivity index (SI) as the ratio of the IC50 for normal fibroblast (HFF-1) to IC50 of the corresponding cell line, is presented in Table S2.
(§2) Compounds 7–14 and doxorubicin were tested for cytotoxic activity in vitro against panel of human cancer cell lines: melanoma (Colo-829, ATCC, Rockville, MD, USA), ovarian cancer (SK-OV-3, ATCC, Rockville, MD, USA), breast cancer (T47D, MCF-7, and MDA-MB-231, ATCC, Rockville, MD, USA) and lung cancer (A549, ATCC, Rockville, MD, USA). The cultured cells were kept at 37 °C and 5% CO2. The cells were seeded (5 × 10^4 cells/well/[…] DMEM supplemented with 10% FCS and streptomycin/penicillin) using 96-well plates (Nunc Thermo Fisher Scientific, Waltham, MA, USA). The tested compounds 7–14 with the concentration of 1–100 µg/mL DMSO were inducted with the cancer cells for 72 h. The WST-1-formazan (proliferation reagent WST-1 assay, Roche Diagnostics, Mannheim, Germany) was detected using a microplate reader at 450 nm. Results were expressed as a mean value of at least three independent experiments performed in triplicate.

[3] = tested on: SK-OV-3 cells; assay: Cytotoxic activity, WST-1 assay, ovarian cancer SK-OV-3; type: cell-based, human; conditions: for SI (IC50 HFF-1/IC50 cancer line) SK-OV-3: HFF-1 vs SK-OV-3; for IC50: Homo sapiens, ovarian cancer SK-OV-3, 72 h, WST-1
Source text: as §1, §2

[4] = tested on: MDA-MB-231 cells; assay: Cytotoxic activity, WST-1 assay, breast cancer MDA-MB-231; type: cell-based, human; conditions: for SI (IC50 HFF-1/IC50 cancer line) MDA-MB-231: HFF-1 vs MDA-MB-231; for IC50: Homo sapiens, breast cancer MDA-MB-231, 72 h, WST-1
Source text: as §1, §2

[5] = tested on: T47D cells; assay: Cytotoxic activity, WST-1 assay, breast cancer T47D; type: cell-based, human; conditions: for IC50: Homo sapiens, breast cancer T47D, 72 h, WST-1; for SI (IC50 HFF-1/IC50 cancer line) T47D: HFF-1 vs T47D
Source text: as §1, §2

[6] = tested on: MCF-7 cells; assay: Cytotoxic activity, WST-1 assay, breast cancer MCF-7; type: cell-based, human; conditions: for SI (IC50 HFF-1/IC50 cancer line) MCF-7: HFF-1 vs MCF-7; for IC50: Homo sapiens, MCF7, breast cancer MCF-7, 72 h, WST-1
Source text: as §1, §2

[7] = tested on: A549 cells; assay: Cytotoxic activity, WST-1 assay, lung cancer A549; type: cell-based, human; conditions: for SI (IC50 HFF-1/IC50 cancer line) A549: HFF-1 vs A549; for IC50: Homo sapiens, lung cancer A549, 72 h, WST-1
Source text: as §1, §2

[8] = tested on: HFF-1 cells; assay: Cytotoxic activity, WST-1 assay, normal fibroblasts HFF-1; type: cell-based; conditions: Homo sapiens, normal fibroblasts HFF-1, 72 h
Source text: as §1, §2

[9] = tested on: TP53; assay: Transcriptional activity of TP53 gene in A549 cells (RT-QPCR); type: cell-based, human; conditions: 24 h, concentration equal to half of IC50
Description: The mechanism of anticancer activity was determined by detection of transcriptional activity of the genes encoding a proliferation marker (H3 histone), cell cycle regulators (p53 and p21), and the mitochondrial apoptosis pathway (BCL-2 and BAX) (Figure 3a–d). The derivatives 11b, 12b, 13b, and 14b were selected for this study.
Transcriptional activity of genes (TP53, CDKN1A, BAX, and BCL-2) was rated by real-time RT-QPCR using Opticon™ DNA Engine system (MJ Research, Watertown, NY, USA) and QuantTect® SYBR® Green RT-PCR Kit (Qiagen, Hilden, Germany). Cultured cells were incubated with tested compounds for 24 h. RNA was extracted using Quick-RNA™ MiniPrep kit columns (Zymo Research, Irvine, CA, USA). The extracted RNA was assessed qualitatively and quantitatively. The amount and purity of the total RNA in extracts were determined spectrophotometrically (HP8452A apparatus, Hewlett Packard, Waldbronn, Germany).

Row | Compound | NQO1 activity (enzymatic conversion rate) [1] [µmol NADPH/µmol NQO1/min] | SI (IC50 HFF-1/IC50 cancer line) Colo-829 [2] | IC50 [2] [µM] | SI (IC50 HFF-1/IC50 cancer line) SK-OV-3 [3] | IC50 [3] [µM] | SI (IC50 HFF-1/IC50 cancer line) MDA-MB-231 [4] | IC50 [4] [µM] | IC50 [5] [µM] | SI (IC50 HFF-1/IC50 cancer line) MCF-7 [6] | IC50 [6] [µM] | SI (IC50 HFF-1/IC50 cancer line) A549 [7] | IC50 [7] [µM] | IC50 [8] [µM] | melting point [°C] | SI (IC50 HFF-1/IC50 cancer line) T47D [5] | TP53 gene expression [9] | Enzymatic conversion rate relative to streptonigrin ([1]; fold higher than streptonigrin)
1 | O=C1C(Cl)=C(Oc2cccc3cccnc23)C(=O)c2ccccc21 [Compound 14a, 2-chloro-3[(quinolin-8-yl)oxy]naphthalene-1,4-dione] | 1282 ± 29 | 0.84 | 15.3 ± 2.56 | 7.54 | 1.7 ± 0.29 | 0.84 | 15.2 ± 0.85 | > 30 | 0.91 | 14.1 ± 0.98 | 19.71 | 0.65 ± 0.07 | 12.8 ± 0.85 | 115 to 117 | – | – | –
2 | Cc1ccc2cccc(OC3=C(Cl)C(=O)c4cccnc4C3=O)c2n1 [Compound 11b, 6-chloro-7-[(2-methylquinolin-8-yl)oxy]quinoline-5,8-dione] | 1294 ± 51 | 13.56 | 1.92 ± 0.11 | 15.40 | 1.69 ± 0.03 | 15.87 | 1.64 ± 0.15 | 2.42 ± 0.13 | 12.34 | 2.11 ± 0.08 | 14.62 | 1.78 ± 0.21 | 26.1 ± 1.02 | 110 to 112 | 10.76 | significant increase | –
3 | O=C1C(Cl)=C(Oc2cccc3cccnc23)C(=O)c2ncccc21 [Compound 11a, 6-chloro-7-(quinolin-8-yloxy)quinoline-5,8-dione] | 1399 ± 26 | 0.55 | 18.5 ± 1.31 | 6.59 | 1.55 ± 0.2 | 0.89 | 11.5 ± 0.19 | 18.7 ± 0.71 | 0.53 | 19.4 ± 0.37 | 6.08 | 1.68 ± 0.05 | 10.2 ± 0.16 | 112 to 114 | 0.55 | – | about 2 times
4 | O=C1C(Cl)=C(Oc2cccc3ccc(Cl)nc23)C(=O)c2cnccc21 [Compound 13d, 6-chloro-7-[(2-chloroquinolin-8-yl)oxy]isoquinoline-5,8-dione] | 633 ± 32 | 5.66 | 1.96 ± 0.08 | 0.65 | 17.1 ± 1.76 | 6.64 | 1.67 ± 0.11 | > 30 | 6.34 | 1.75 ± 0.19 | 184.83 | 0.06 ± 0.01 | 11.1 ± 1.07 | 127 to 129 | – | – | –
5 | Cc1ccc2c(n1)C(=O)C(Oc1cccc3ccc(Cl)nc13)=C(Cl)C2=O [Compound 12d, 6-chloro-2-methyl-7-[(2-chloroquinolin-8-yl)oxy]quinoline-5,8-dione] | 890 ± 21 | 0.78 | 13.1 ± 0.49 | 0.67 | 15.4 ± 0.48 | 0.66 | 15.6 ± 0.79 | 16.2 ± 0.98 | 0.59 | 17.4 ± 0.82 | 7.04 | 1.46 ± 0.06 | 10.3 ± 1.65 | 120 to 122 | 0.64 | – | –
6 | O=Cc1ccc2cccc(OC3=C(Cl)C(=O)c4cccnc4C3=O)c2n1 [Compound 11c, 8-[(6-chloro-5,8-dioxo-5,8-dihydroquinolin-7-yl)oxy]quinoline-2-carbaldehyde] | 1100 ± 35 | 0.90 | 11.7 ± 1.36 | 5.91 | 1.78 ± 0.31 | 0.73 | 14.3 ± 2.01 | 22.2 ± 0.66 | 0.57 | 18.3 ± 1.23 | 7.26 | 1.45 ± 0.13 | 10.5 ± 0.87 | 168 to 170 | 0.47 | – | –
7 | O=C1C(Cl)=C(Oc2cccc3ccc(Cl)nc23)C(=O)c2ccccc21 [Compound 14d, 2-chloro-3-[(2-chloroquinolin-8-yl)oxy]naphthalene-1,4-dione] | 1001 ± 43 | 0.80 | 18 ± 2.01 | 1.01 | 14.1 ± 0.52 | 6.99 | 2.05 ± 0.35 | > 30 | 1.23 | 11.7 ± 1.34 | 1.76 | 8.13 ± 1.02 | 14.3 ± 1.23 | 101 to 103 | – | – | –
8 | O=C1C(Cl)=C(Oc2cccc3cccnc23)C(=O)c2cnccc21 [Compound 13a, 6-chloro-7-(quinolin-8-yloxy)isoquinoline-5,8-dione] | 1210 ± 23 | 162.88 | 0.17 ± 0.02 | 60.20 | 0.46 ± 0.02 | 27.15 | 1.02 ± 0.15 | 0.09 ± 0.04 | 23.87 | 1.16 ± 0.15 | 923.00 | 0.03 ± 0.01 | 27.7 ± 0.7 | 86 to 88 | 307.67 | – | –
